Common to all, as to experiment: Post-emergence efficacy, glasshouse spray test
Common to all, as to assay type: in vivo

The subject of experiment [1] is Amaranthus palmeri (AMAPA). The note with it: Amaranthus palmeri, post-emergence, 312 h, evaluated after 13 days, read-out: Control of weed species AMAPA after post-emergence application (100=total damage to plant; 0=no damage to plant); for pest or weed control at 1000 g/ha: application rate 1000 g/Ha; for pest or weed control at 500 g/ha: application rate 500 g/Ha. Summed up: (§1)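 Plants sown in standard soil were grown 14 days in a glasshouse (24/16 °C day/night, 14 h light, 65% humidity) and then sprayed post-emergence. Compound in acetone/IF50 emulsifier mix was diluted in 0.25% or 1% Empicol ESC70 + 1% ammonium sulphate. Damage was scored after 13 days (0 = none, 100 = total).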

Experiment [2] deals with Chenopodium album (CHEAL). The note with it: Chenopodium album, post-emergence, 312 h, evaluated after 13 days, read-out: Control of weed species CHEAL after post-emergence application (100=total damage to plant; 0=no damage to plant); for pest or weed control at 1000 g/ha: application rate 1000 g/Ha; for pest or weed control at 500 g/ha: application rate 500 g/Ha. The gist of the method:
as §1

Experiment [3] concerns Digitaria sanguinalis (DIGSA). The following applies: Digitaria sanguinalis, post-emergence, 312 h, evaluated after 13 days, read-out: Control of weed species DIGSA after post-emergence application (100=total damage to plant; 0=no damage to plant); for pest or weed control at 1000 g/ha: application rate 1000 g/Ha; for pest or weed control at 500 g/ha: application rate 500 g/Ha. Summed up:
as §1

Experiment [4] deals with Echinochloa crus-galli (ECHCG). The following applies: Echinochloa crus-galli, post-emergence, 312 h, evaluated after 13 days, read-out: Control of weed species ECHCG after post-emergence application (100=total damage to plant; 0=no damage to plant); for pest or weed control at 1000 g/ha: application rate 1000 g/Ha; for pest or weed control at 500 g/ha: application rate 500 g/Ha. Summed up: as §1

The subject of experiment [5] is Eleusine indica (ELEIN). The note with it: Eleusine indica, post-emergence, 312 h, evaluated after 13 days, read-out: Control of weed species ELEIN after post-emergence application (100=total damage to plant; 0=no damage to plant); for pest or weed control at 1000 g/ha: application rate 1000 g/Ha; for pest or weed control at 500 g/ha: application rate 500 g/Ha. Summed up: as §1

For experiment [6], the system named is Euphorbia heterophylla (EPHHL). The note with it: Euphorbia heterophylla, post-emergence, 312 h, evaluated after 13 days, read-out: Control of weed species EPHHL after post-emergence application (100=total damage to plant; 0=no damage to plant); for pest or weed control at 1000 g/ha: application rate 1000 g/Ha; for pest or weed control at 500 g/ha: application rate 500 g/Ha. Summed up: as §1

For experiment [7], the system named is Ipomoea hederacea (IPOHE). The following applies: Ipomoea hederacea, post-emergence, 312 h, evaluated after 13 days, read-out: Control of weed species IPOHE after post-emergence application (100=total damage to plant; 0=no damage to plant); for pest or weed control at 1000 g/ha: application rate 1000 g/Ha; for pest or weed control at 500 g/ha: application rate 500 g/Ha. Summed up:
as §1

In experiment [8] the test system is Lolium perenne (LOLPE). The note with it: Lolium perenne, post-emergence, 312 h, evaluated after 13 days, read-out: Control of weed species LOLPE after post-emergence application (100=total damage to plant; 0=no damage to plant); for pest or weed control at 1000 g/ha: application rate 1000 g/Ha; for pest or weed control at 500 g/ha: application rate 500 g/Ha. Summed up: as §1

The subject of experiment [9] is Setaria faberi (SETFA). The following applies: Setaria faberi, post-emergence, 312 h, evaluated after 13 days, read-out: Control of weed species SETFA after post-emergence application (100=total damage to plant; 0=no damage to plant); for pest or weed control at 1000 g/ha: application rate 1000 g/Ha; for pest or weed control at 500 g/ha: application rate 500 g/Ha. Summed up:
as §1

The values below come from US20220046923A1, “HERBICIDAL CINNOLINIUM COMPOUNDS” (SYNGENTA CROP PROTECTION AG, priority 2018, published 2022).

Turning to `O=S(=O)([O-])CCC[n+]1cc(C(Cl)Cl)c2ccccc2n1` [Compound A39, 3-[4-(dichloromethyl)cinnolin-2-ium-2-yl]propane-1-sulfonate], the pest or weed control at 1000 g/ha in [1] came out at 10%; in [2], 20%; in experiment [3], 10%; in experiment [4] it was 10%; in [5], 10%; in experiment [6], 40%. Moreover, the pest or weed control at 1000 g/ha in experiment [7] was determined as 30%; in experiment [8], 0%; in experiment [9], 0%.
For the compound `O=S(=O)([O-])CC[n+]1ccc2cc(F)ccc2n1` [Compound A82], the pest or weed control at 1000 g/ha in experiment [1] stood at 90%; in experiment [2] it was 70%; in experiment [3], 40%; in [4] it was 20%; in experiment [5] it was 60%; in experiment [6], 60%. Moreover, the pest or weed control at 1000 g/ha in [7] was 40%; in experiment [8], 30%; in [9], 30%.
Turning to `O=S(=O)([O-])NCC[n+]1ccc2ccccc2n1` [Compound A41], the pest or weed control at 1000 g/ha came out at 100% in experiment [1]; 100% in experiment [2]; 80% in experiment [3]; 30% in [4]; 100% in experiment [5]; 100% in experiment [6]. The pest or weed control at 1000 g/ha amounted to 80% in [7], 70% in [8] and 90% in experiment [9].
Consider `Cc1c[n+](CC(=O)O)nc2ccccc12` [Compound A66], for which the pest or weed control at 1000 g/ha in experiment [1] came to 20%; in experiment [2] it was 60%; in experiment [3], 0%; in experiment [4], 0%; in [5], 20%; in [6], 20%. Besides, the results for the pest or weed control at 1000 g/ha in experiment [7], in [8] and in experiment [9] were 30%, 0% and 0%, respectively.
As to `CC(CC[n+]1ccc2ccccc2n1)S(=O)(=O)[O-]` (stereo not drawn) [Compound A43, 4-cinnolin-2-ium-2-ylbutane-2-sulfonate], the pest or weed control at 1000 g/ha in [1] was found to be 100%; in experiment [2] it was 100%; in experiment [3], 80%; in [4] it was 70%; in experiment [5], 100%; in experiment [6], 100%. The pest or weed control at 1000 g/ha is 80% in experiment [7], 40% in experiment [8] and 70% in [9].
Turning to `Cc1cc2ccccc2n[n+]1CCS(=O)(=O)[O-]` [Compound A77, 2-(3-methylcinnolin-2-ium-2-yl)ethanesulfonate], the pest or weed control at 1000 g/ha was 100% in experiment [1]; 100% in experiment [2]; 90% in experiment [3]; 30% in [4]; 90% in experiment [5]; 90% in [6]. Besides, the results for the pest or weed control at 1000 g/ha in experiment [7], in [8] and in [9] were 80%, 40% and 30%, respectively.
Regarding `Cc1cccc2n[n+](CCS(=O)(=O)[O-])ccc12` [Compound A97], the pest or weed control at 500 g/ha in [1] turned out to be 100%; in experiment [2] it was 90%; in experiment [3] it was 50%; in [4], 30%; in experiment [5], 70%; in experiment [6] it was 80%. Besides, the figures for the pest or weed control at 500 g/ha in [7], in experiment [8] and in experiment [9] were 10%, 10% and 60%, respectively.
With `COC(=O)C[n+]1ccc2cc(C)ccc2n1` [Compound A57], the pest or weed control at 1000 g/ha in experiment [1] worked out at 70%; in experiment [2], 40%; in experiment [3], 40%; in experiment [4] it was 20%; in [5], 60%; in [6] it was 60%. For the same compound, the pest or weed control at 1000 g/ha in [7] was determined as 20%; in [8] it was 10%; in experiment [9] it was 30%.
On to `COC(=O)c1cccc2cc[n+](CCS(=O)(=O)[O-])nc12` [Compound A109, 2-(8-methoxycarbonylcinnolin-2-ium-2-yl)ethanesulfonate], for which the pest or weed control at 500 g/ha in [1] was found to be 40%; in experiment [2], 20%; in [3], 10%; in experiment [4], 30%; in [5] it was 10%; in experiment [6] it was 30%. Further, the pest or weed control at 500 g/ha in experiment [7], in experiment [8] and in experiment [9] was 10% in each case.
In the case of `Cc1ccc2cc[n+](CCS(=O)(=O)[O-])nc2c1` [Compound A87], the pest or weed control at 1000 g/ha turned out to be 100% in experiment [1]; 100% in experiment [2]; 40% in experiment [3]; 40% in experiment [4]; 80% in [5]; 100% in [6]. Further, the pest or weed control at 1000 g/ha in [7] was 70%; in experiment [8], 40%; in experiment [9] it was 50%.
For `Cc1ccc2n[n+](CCS(=O)(=O)[O-])ccc2c1` [Compound A32], the pest or weed control at 1000 g/ha came out at 90% in [1]; 90% in [2]; 70% in experiment [3]; 80% in [4]; 90% in experiment [5]; 90% in experiment [6]. Also, the pest or weed control at 1000 g/ha in [7] was 70%; in experiment [8], 30%; in experiment [9] it was 60%.
Turning to `Cc1cccc2cc[n+](CC(=O)O)nc12` [Compound A59], the pest or weed control at 1000 g/ha in [1] stood at 30%; in experiment [2], 60%; in experiment [3] it was 20%; in [4], 20%; in [5] it was 10%; in [6], 20%. For the same compound, the values for the pest or weed control at 1000 g/ha in experiment [7], in [8] and in experiment [9] were 10%, 10% and 20%, respectively.
